Experimental data reported in patent US5750531A, “Pyrimidine derivatives and processes for the preparation thereof” (Yuhan Corporation, priority 1994, dated 1998).
Structures can show the parent of a compound that is named as a salt.

Key:
[1] = test system: gastric secretion; assay: Inhibition of gastric secretion (pylorus ligation, Shay method); assay type: in vivo, Male Sprague-Dawley rats; details: 20 mg/kg intraduodenally, 5 hours; for Rel. Conc.: acid concentration relative to omeprazole; for Relative Acid Output: acid output relative to omeprazole; for Rel. Vol.: gastric juice volume relative to omeprazole
Procedure: Inhibition of gastric secretion […] Under ether anesthesia, the abdomen was incised, and the pylorus was ligated. […] After closing the abdominal cavity, the rats were placed for 5 hours and then killed by cervical dislocation. The stomach was extracted to obtain gastric juice. The gastric juice was centrifuged at 1,000 g to remove precipitates. The amount and acidity of the gastric juice were measured. Relative volumes, relative acid concentrations and relative acid outputs of the test compounds were calculated from equations(I), (II) and (III) and the results are shown in Table 2. […] Group 3) (II) […] (III)

[2] = molecular target: proton pump(H^+ /K^+ ATPase); assay: Inhibition of proton pump(H^+ /K^+ ATPase) activity; assay type: biochemical; details: pH 6.0, 37° C., 30 minutes preincubation and 30 minutes reaction; read-out: IC50 Test compound
Procedure: Test 1: Inhibition of proton pump(H^+ /K^+ ATPase) activity
A proton pump enzyme source was prepared by the same method as in Experiment 1-1 of WO 94/14795. Further, the inhibitory effect of proton pump activity was measured by the same method as in Experiment 1-2 of WO 94/14795.
Namely, the proton pump activity stimulated by Mg^++ was used as a negative comparative group, and the activity stimulated by Mg^++ and K^+ was used as a positive comparative group. The comparative compound was omeprazole.
Test tubes were divided into 4 groups: Group 1 as negative comparative group(n=3), Group 2 as positive comparative group(n=3), Group 3(n=5×2) to be administered with the compound of the present invention and Group 4(n=5×2) to be administered with the comparative compound.
The inhibitory effects of Groups 3 and 4 on proton pump activity were measured by employing the compound prepared in Example and omeperazole, respectively, each of which was dissolved in dimethylsulfoxide at 5 different concentrations.
To each of Groups 1, 2, 3 and 4 were added 100 μl of magnesium chloride(40 mM) dissolved in 40 mM Tris-HCl buffer(pH 6.0) and 100μ of the enzyme source. Then, 50μ of potassium chloride(50 mM) and 50 μl of ammonium chloride(6 mM) dissolved in 40 mM Tris-HCl buffer(pH 6.0) were added to all groups except for Group 1.
10 μl of dimethylsulfoxide was added to each of Groups 1 and 2; and to Group 3 was added 10 μl of the solution in which the compound prepared in Example was dissolved in dimethylsulfoxide at 5 different concentrations(n=5×2). To Group 4, 10 μl of the solution prepared by dissolving omeprazole in dimethylsulfoxide at 5 different concentrations(37.6, 21.4, 12.2, 7.0 and 4.0 μM) was added(n=5×2). 40 mM Tris-HCl buffer(pH=6.0) was added thereto so as to make the total volume 400 μl.
Thereafter, the test tubes of each Group were placed at 37° C. for 30 minutes for the preincubation. 100 μl of ATP solution (6.6 mM) was added until the reaction volume became 500 μl. After the reaction was carried out at 37° C. for 30 minutes, 25% cold trichloroacetic acid was added to terminate the enzyme reaction. The released inorganic phosphate was measured by an automatic analyzer(Express 550, Corning).
The difference between Group 1 and Group 2 represents the proton pump activity activated by K^+ only. The inhibition percentages of Groups 3 and 4 were calculated from Litchfield-wilcoxon equation[see, e.g., J. pharmacol. Exp. Ther., 96, 99(1949)]. The concentrations of the test compounds which inhibit 50% of the proton pump activity are represented as IC50 in Table 1.

Compound	Rel. Conc. [1]	Relative Acid Output [1]	Rel. Vol. [1]	IC50 [2] [nM]
Cc1cc(F)ccc1Nc1nc(N2CCc3ccccc3[C@H]2C)nc(C)c1C.Cl [Example 66, (R)-5,6-dimethyl-4-(2-methyl-4-fluorophenylamino)-2-(1-methyl-1,2,3,4-tetrahydroisoquinolin-2-yl)pyrimidine hydrochloride]	0.47	0.85	1.49	900
Cc1cc(Nc2ccc(F)cc2C)nc(N2CCc3ccccc3C2C)n1.Cl (stereo not drawn) [Example 57, 6-methyl-4-(2-methyl-4-fluorophenylamino)-2-(1-methyl-1,2,3,4-tetrahydroisoquinolin-2-yl)pyrimidine hydrochloride]	0.27	0.61	1.2	3300
Cc1cc(N2CCc3ccsc3C2C)nc(Nc2ccc(F)cc2C)n1.Cl (stereo not drawn) [Example 52, 6-methyl-2-(2-methyl-4-fluorophenylamino)-4-(7-methyl-4,5,6,7-tetrahydrothieno[2,3-c]pyridin-6-yl)pyrimidine hydrochloride]	0.94	1.12	1.34	500
CCc1cc(N2CCc3ccccc3C2)nc(N(C)c2ccccc2)n1.Cl [Example 39, 6-ethyl-2-(N-methylphenylamino)-4-(1,2,3,4-tetrahydroisoquinolin-2-yl)pyrimidine hydrochloride]	0.18	0.56	0.58	> 15000
CCc1cc(N2CCc3ccccc3C2)nc(Nc2ccc(F)cc2C)n1.Cl [Example 37, 6-ethyl-2-(2-methyl-4-fluorophenylamino)-4-(1,2,3,4-tetrahydroisoquinolin-2-yl)pyrimidine hydrochloride]	0.42	0.82	0.82	700
Cc1nc(Nc2ccc(F)cc2)nc(N2CCc3ccccc3[C@H]2C)c1C.Cl [Example 16, (R)-5,6-dimethyl-2-(4-fluorophenylamino)-4-(1-methyl-1,2,3,4-tetrahydroisoquinolin-2-yl)pyrimidine hydrochloride]	1.24	1.13	0.96	1500
Cc1cc(Nc2ccc(F)cc2)nc(N2CCc3ccsc3C2C)n1.Cl (stereo not drawn) [Example 60, 6-methyl-4-(4-fluorophenylamino)-2-(7-methyl-4,5,6,7-tetrahydrothieno[2,3-c]pyridin-6-yl)pyrimidine hydrochloride]	0.28	0.65	0.65	~15000
CCc1nc(Nc2ccc(F)cc2)nc(N2CCc3ccccc3C2)c1C.Cl [Example 45, 5-methyl-6-ethyl-2-(4-fluorophenylamino)-4-(1,2,3,4-tetrahydroisoquinolin-2-yl)pyrimidine hydrochloride]	0.75	0.89	0.84	3100
CCc1cc(N2CCc3ccccc3C2)nc(Nc2ccc(F)cc2)n1.Cl [Example 38, 6-ethyl-2-(4-fluorophenylamino)-4-(1,2,3,4-tetrahydroisoquinolin-2-yl)pyrimidine hydrochloride]	0.37	0.74	0.74	2200
Cc1cc(N2CCc3ccccc3C2)nc(Nc2ccc(F)cc2)n1.Cl [Example 35, 6-methyl-2-(4-fluorophenylamino)-4-(1,2,3,4-tetrahydroisoquinoline-2-yl)pyrimidine hydrochloride]	0.84	0.94	1.05	2500
Cc1nc(N(C)c2ccccc2)nc(N2CCc3ccccc3[C@H]2C)c1C.Cl [Example 19, (R)-5,6-Dimethyl-2-(N-methylphenylamino)-4-(1-methyl-1,2,3,4-tetrahydroisoquinolin-2-yl)pyrimidine hydrochloride]	1.86	1.43	1.8	3900
Cc1cc(Nc2ccc(F)cc2)nc(N2CCc3ccccc3C2C)n1.Cl (stereo not drawn) [Example 58, 6-methyl-4-(4-fluorophenylamino)-2-(1-methyl-1,2,3,4-tetrahydroisoquinolin-2-yl)pyrimidine hydrochloride]	0.16	0.35	0.58	> 25000
CCCc1cc(N2CCc3ccccc3C2C)nc(Nc2ccc(F)cc2C)n1.Cl (stereo not drawn) [Example 9, 2-(2-methyl-4-fluorophenylamino)-4-(1-methyl-1,2,3,4-tetrahydroisoquinolin-2-yl)-6-propylpyrimidine hydrochloride]		0.3	0.4	~10000
Cc1nc(Nc2ccc(F)cc2)nc(N2CCc3ccccc3C2)c1C.Cl [Example 42, 5,6-dimethyl-2-(4-fluorophenylamino)-4-(1,2,3,4-tetrahydroisoquinolin-2-yl)pyrimidine hydrochloride]	1.4	1.15	1.15	1500
Cc1nc(Nc2ccc(F)cc2)nc(N2CCc3ccccc3C2C)c1C.Cl (stereo not drawn) [Example 15, 5,6-dimethyl-2-(4-fluorophenylamino)-4-(1-methyl-1,2,3,4-tetrahydroisoquinolin-2-yl)pyrimidine hydrochloride]	1.06	0.99	0.8	1600
CC1c2ccccc2CCN1c1nc(N(C)c2ccccc2)nc2c1CCC2 (stereo not drawn) [Example 31, 2-(N-methylphenylamino)-4-(1-methyl-1,2,3,4-tetrahydroisoquinolin-2-yl)cyclopenta[d]pyrimidine hydrochloride]	0.21	0.74	0.83	~15000
CCc1nc(N(C)c2ccccc2)nc(N2CCc3ccccc3C2C)c1C.Cl (stereo not drawn) [Example 28, 5-methyl-6-ethyl-2-(N-methylphenylamino)-4-(1-methyl-1,2,3,4-tetrahydroisoquinolin-2-yl)pyrimidine hydrochloride]	0.44	0.78	0.71	> 15000
CCc1cc(N(C)c2ccccc2)nc(N2CCc3ccccc3C2)n1.Cl [Example 64, 6-ethyl-4-(N-methylphenylamino)-2-(1,2,3,4-tetrahydroisoquinolin-2-yl)pyrimidine hydrochloride]	0.26	0.40	0.34	~10000
Cc1cc(F)ccc1Nc1nc(N2CCc3ccccc3C2C)nc2c1CCC2 (stereo not drawn) [Example 81, hydrochloride]	0.47	0.68	0.56	400
CCc1nc(Nc2ccc(F)cc2)nc(N2CCc3ccccc3C2C)c1C.Cl (stereo not drawn) [Example 27, 5-methyl-6-ethyl-2-(4-fluorophenylamino)-4-(1-methyl-1,2,3,4-tetrahydroisoquinolin-2-yl)pyrimidine hydrochloride]	0.61	0.81	0.7	2100
Cc1nc(Nc2ccc(F)cc2)nc(N2CCc3ccccc3[C@@H]2C)c1C.Cl [Example 17, (S)-5,6-dimethyl-2-(4-fluorophenylamino)-4-(1-methyl-1,2,3,4-tetrahydroisoquinolin-2-yl)pyrimidine hydrochloride]	0.97	0.89	0.82	1800
CCc1nc(N(C)c2ccccc2)nc(N2CCc3ccccc3C2)c1C.Cl [Example 46, 5-methyl-6-ethyl-2-(N-methylphenylamino)-4-(1,2,3,4-tetrahydroisoquinolin-2-yl)pyrimidine hydrochloride]	0.44	0.74	0.73	~19200
